# Experimental data from PMC9791135, “A penetratin-derived peptide reduces the membrane permeabilization and cell toxicity of α-synuclein oligomers” (The Journal of Biological Chemistry, 2022).
# Where a SMILES comes first, the peptide text is derived from it.
# How the values were obtained:
# SH-SY5Y cells = conditions: αSOs with peptide, MTT
# Procedure: The effect of the peptides on αSOs toxicity in SH-SY5Y cells using 3-(4, 5-dimethylthiazol-2-yl)-2,5-diphenyltetrazolium bromide (MTT) cell viability assay was also tested to complement our calcein data.
# We used the MTT assay to measure cell viability after 24 h treatment with αSOs in the presence of peptides. SH-SY5Y cells were seeded in 96-well plates at a density of 5 × 10^4 cell/ml in Dulbecco's modified Eagle's medium supplemented with 10% FBS, 100 unit/ml penicillin, and […]. The cells were incubated in a humidified atmosphere incubator with 5% CO2 and 95% humidity at 37 °C for 24 h. The culture medium was then replaced with fresh medium containing 10 μM αSOs with peptides and incubated for another 24 h. Then the cell medium was replaced with a fresh medium containing 20% MTT (5 mg/ml), and the cells were incubated for an additional 4 h at 37 °C. Then 100 μl of dimethyl sulfoxide was added to dissolve formazan crystals by incubating for 30 min on a shaker at RT. Consequently, absorbance was measured by using a plate reader at 570 nm.
# [1] = ThT monitoring of peptides alone for self-fibrillation; type: physicochemical; conditions: peptide alone (controls 1 mg/mL), 37 °C with shaking
# Procedure: To test the effects of these selected nine peptides on the aggregation of α-syn, we performed a thioflavin T (ThT) fluorescence assay in the presence of 1 mg/ml α-syn and 0 to 0.5 mg/ml peptide for 48 h (raw data in Fig. S3). Furthermore, the peptides alone were monitored for self-fibrillation. […] High concentrations of p222, p194, and p249 led to a decline in ThT fluorescence after reaching a plateau, possibly because of the formation of insoluble amorphous species. We also carried out seeding experiments by adding 5% sonicated preaggregated α-syn fibrils to the ThT assay.
# About 150 μl of 70 μM (1 mg/ml) α-syn, 40 μM ThT, and varying amounts of peptides (0, 0.06, 0.125, 0. 25, 0.375, and 0.5 mg/ml) were transferred in triplicates to a black COSTAR 96-well clear bottom plate (Nunc, Thermo Fisher Scientific), and including a 3 mm diameter glass bead (Glaswarenfabrik Karl Hecht GmbH & Co KG) per well to increase reproducibility ([100]). The plate was sealed with Crystal Clear sealing tape (Hampton Research) and incubated at 37 °C in a CLARIOstar Plus (BMG LABTECH) fluorescence plate reader. Fibrillation was carried out for ∼48 h with 300 rpm double orbital shaking between the readings for 372 s (excitation/emission: 448∕485 nm). […]
# [picture] […] The effect of the 9 peptides on α-syn fibrillation monitored by ThT fluorescence. […]
Compound,"Effect on cell survival in the presence of toxic αSOs, in words (SH-SY5Y cells)",Self-fibrillation of the peptide alone [1]
CC[C@H](C)[C@H](NC(=O)[C@H](Cc1c[nH]c2ccccc12)NC(=O)[C@H](CCCNC(=N)N)NC(=O)[C@H](Cc1c[nH]c2ccccc12)NC(=O)[C@H](CCCCN)NC(=O)[C@@H](NC(=O)[C@H](CCCCN)NC(=O)[C@H](CCC(N)=O)NC(=O)[C@@H](N)CC(N)=O)[C@@H](C)CC)C(=O)N[C@@H](CCC(N)=O)C(=O)N[C@@H](CCCNC(=N)N)C(=O)N[C@@H](Cc1ccccc1)C(=O)N[C@@H](CCCNC(=N)N)C(=O)N[C@@H](CCCCN)C(=O)N[C@@H](CCCCN)C(=O)N[C@@H](CCSC)C(=O)O [p235] (H-NQKIKWRWIQRFRKKM-OH; N-terminus and C-terminus assumed),did not show positive effects,–
CC[C@H](C)[C@H](NC(=O)[C@H](Cc1ccccc1)NC(=O)[C@H](Cc1c[nH]c2ccccc12)NC(=O)[C@H](CCCNC(=N)N)NC(=O)[C@H](CC(N)=O)NC(=O)[C@@H](NC(=O)[C@H](CCC(N)=O)NC(=O)[C@H](CCCCN)NC(=O)[C@@H](N)CCSC)[C@@H](C)CC)C(=O)N[C@@H](CCCNC(=N)N)C(=O)N[C@@H](Cc1c[nH]c2ccccc12)C(=O)N[C@@H](CCC(N)=O)C(=O)N[C@@H](CCCCN)C(=O)N[C@@H](CCCCN)C(=O)N[C@@H](CCCNC(=N)N)C(=O)N[C@@H](CCCCN)C(=O)O [p249] (H-MKQINRWFIRWQKKRK-OH; N-terminus and C-terminus assumed),did not show positive effects,–
"RQIKIWFQNRRFKWKK [p222, penetratin with modulated hydrophobicity]",–,slight self-fibrillation tendencies
